Our source for the IC50 values is US10774051B2, “6-membered heterocyclic derivatives and pharmaceutical composition comprising the same” (Shionogi & Co., Ltd., priority 2015, dated 2020).

One test has as its target human P2X7 receptor (Homo sapiens, UniProt Q99572, R270H/Y155H). As to the kind of experiment: Evaluation of human P2X7 receptor inhibitory activity (Yo-Pro uptake, BzATP stimulation, FLIPR TETRA). The class given is cell-based. The conditions noted are these: 1321N1 cells stably expressing human P2X7 receptor; BzATP stimulation, Yo-Pro uptake; read-out: IC50 (antagonistic activity for the human P2X7 receptor). The protocol:
Stably expressing cell line (1321N1 cell transfected with the human P2X7 receptor gene (GenBank accession number NM_002562.5 including T606C and G952A SNP)) was used. The cells were seeded in a 384-well microtiter plate at a concentration of 8000 cells/well and cultured in the medium (10% fetal bovine serum, 25 mM HEPES, 1% penicillin and streptomycin in DMEM) for one day at 37° C. under 5% carbon dioxide atmosphere. After replacing with 20 μL of the HBSS buffer (20 mM HEPES, 55.6 mM D-glucose, 1×HBSS(−), pH7.4-7.5), 15 μL of 17.3 μM Yo-Pro solution in the HBSS buffer was added. The plate was placed in high-throughput cellular screening system FLIPR TETRA (Molecullar Devices, LLC.) and 15 μL of 130 μM BzATP solution in the HBSS buffer was added. Measurement of fluorescence intensity by FLIPR TETRA was started. After eight minutes, 15 μL of DMSO solutions containing different concentrations of the compound of the present invention as prepared by dilution with the HBSS buffer were dispensed to each well through the built-in automatic dispenser, and the measurement of fluorescence intensity was continued for 20 minutes. […] Changing values of fluorescence intensity by the compound of the present invention were calculated by difference between maximum and minimum fluorescence intensity for 20 minutes. Inhibition ratios (%) were calculated from the following equation:
[formula] IC50 was calculated using logistic approximation.
By IC50 is commonly meant the concentration at which inhibition is half-maximal. Consider `CCOc1cc(Nc2nc(=O)c(OC)cn2Cc2ccc(F)c(Cl)c2)c(C)cc1C` [Compound I-0792], for which the IC50 was found to be 9 nM.

Still in this test, the particulars now being: 1321N1 cells stably expressing human P2X7 receptor; BzATP stimulation, Yo-Pro uptake; read-out: IC50 (antagonistic activity for the human P2X7 receptor), class symbol.
`CCc1c(Nc2nc(=O)c(OC)cn2Cc2ccccc2)cccc1OC` [Compound I-0212]: the IC50 was under 10 nM.
Still for that read-out and setting: as for `CCc1c(Nc2nc(=O)c(F)cn2Cc2cccc(Cl)c2)cc(OC)cc1OC` [Compound I-0315], the figure is under 10 nM; as for `CCOc1ccc(C)c(Nc2nc(=O)c(OC)cn2Cc2cccc(Cl)c2)c1` [Compound I-0456], 10 to 100 nM; as for `COc1cn(Cc2ccccc2)c(Nc2cccc(Cl)c2C)nc1=O` [Compound I-0037], under 10 nM.
The same measure, in the same setting: as for `CCc1cc(C)c(C)cc1Nc1nc(=O)c(OC)cn1Cc1ccccc1` [Compound I-0265], the figure is under 10 nM; as for `CCc1ccc(OC)cc1Nc1nc(=O)c(OC)cn1Cc1cccc(Cl)c1` [Compound I-0254], 10 to 100 nM.
On the same count and under the same terms, as for `COc1cn(Cc2ccc(F)c(F)c2)c(Nc2cccc(Cl)c2C)nc1=O` [Compound I-0222], the figure is under 10 nM; as for `Cc1cccc(Nc2nc(=O)c(Cl)cn2Cc2ccccc2)c1C` [Compound I-0158], 10 to 100 nM; as for `COc1cn(Cc2ccc(Cl)cc2)c(Nc2cccc(Cl)c2C)nc1=O` [Compound I-0127], 10 to 100 nM.
Regarding `COc1cc(Nc2nc(=O)c(OC)cn2Cc2ccc(F)c(Cl)c2)c(C)cc1Cl` [Compound I-0536], the IC50 was under 10 nM.
Still for that read-out and setting: as for `COc1cn(Cc2ccc(F)c(Cl)c2)c(Nc2cc(Cl)c(Cl)cc2C)nc1=O` [Compound I-0426], the figure is 10 to 100 nM.

The same test, now with this note: antagonistic activity for the human P2X7 receptor; read-out: IC50.
With `COc1cc(C)c(Nc2nc(=O)c(OC)cn2Cc2ccc(F)c(F)c2)cc1Cl` [Compound I-0616], the IC50 was under 10 nM.
On the same count and under the same terms, in the case of `COc1ccc(Cl)c(Nc2nc(=O)c(OC)cn2Cc2cc(F)c(F)c(F)c2)c1` [Compound I-0846] it was under 10 nM; in that of `CCOc1ccc(Nc2nc(=O)c(OC)cn2Cc2ccc(F)c(Cl)c2)c(C)c1` [Compound I-0679], under 10 nM.
On the same count and under the same terms, in the case of `COc1ccc(C)cc1Nc1nc(=O)c(OC)cn1Cc1cc(F)c(F)c(F)c1` [Compound I-0936] it was 10 to 100 nM; in that of `COc1cn(Cc2cc(F)c(F)c(F)c2)c(Nc2cc(C)c(OC(F)F)cc2C)nc1=O` [Compound I-0607], under 10 nM; in that of `Cc1cc2c(cc1Nc1nc(=O)c(F)cn1Cc1ccc(F)c(Cl)c1)COC2` [Compound I-1026], under 10 nM.
With `Cc1cc2[nH]ccc2cc1Nc1nc(=O)c(F)cn1Cc1ccc(F)c(Cl)c1` [Compound I-1042], the IC50 was under 10 nM.
On the same count and under the same terms, as for `CCOc1cc(Nc2nc(=O)c(OC)cn2Cc2cc(F)c(F)c(F)c2)c(C)cc1F` [Compound I-0921], the figure is under 10 nM; as for `O=c1nc(Nc2cccc3[nH]ccc23)n(Cc2cc(F)c(F)c(F)c2)cc1F` [Compound I-1023], under 10 nM; as for `Cc1ccc(OCC2CC2)cc1Nc1nc(=O)c(F)cn1Cc1cc(F)cc(F)c1` [Compound I-0997], 10 to 100 nM.
`CCOc1cc(C)c(Nc2nc(=O)c(F)cn2Cc2ccc(F)c(Cl)c2)cc1F` [Compound I-1060]: the IC50 was in the range of 10 to 100 nM.
Same read-out and setting: as for `COc1cn(Cc2ccc(F)c(C(F)(F)F)c2)c(Nc2cccc(Cl)c2C)nc1=O` [Compound I-0635], the figure is 10 to 100 nM; as for `Cc1nc2[nH]ccc2cc1Nc1nc(=O)c(F)cn1Cc1cc(F)c(F)c(F)c1` [Compound I-1017], 10 to 100 nM; as for `COc1cn(Cc2ccc(F)c(Cl)c2)c(Nc2cc3nc(C)sc3cc2C)nc1=O` [Compound I-0746], 10 to 100 nM.
Still for that read-out and setting: in the case of `Cc1ccc(OC(F)F)cc1Nc1nc(=O)c(F)cn1Cc1cc(F)cc(F)c1` [Compound I-0994] it was 10 to 100 nM; in that of `COc1cn(Cc2cc(F)cc(F)c2)c(Nc2cc3c(cc2C)OCCC3)nc1=O` [Compound I-0913], 10 to 100 nM.
Consider `COc1cc(C)c(Nc2nc(=O)c(OC)cn2Cc2cc(F)c(F)c(F)c2)cc1OC` [Compound I-0623], for which the IC50 is under 10 nM.
On the same count and under the same terms, as for `COc1cn(Cc2cc(F)c(F)c(F)c2)c(Nc2cc3sc(C)nc3cc2C)nc1=O` [Compound I-0697], the figure is under 10 nM.
